Assay results taken from paper PMC12475274, “Harnessing indole scaffolds to identify small-molecule IRE1α inhibitors modulating XBP1 mRNA splicing” (Nature Communications, 2025).
Entries after “also recorded” stand apart in the source; their conditions may differ. Read-outs that look alike come from different tables or passages of the source.

Assays:
IRE1α (ERN1) = IRE1α (ERN1) (Homo sapiens, UniProt O75460); assay: LanthaScreen Eu kinase binding assay, IRE1α; conditions: for inhibition at 5.56 µM: Conc. 5560 nM; for inhibition at 5.56 µM / inhibition at 16.7 µM / inhibition at 50 µM: duplicates; for inhibition at 16.7 µM: Conc. 16700 nM; for inhibition at 50 µM: Conc. 50000 nM
Protocol: LanthaScreen^TM Eu kinase binding assays were conducted by SelectScreen Kinase Profiling Services (Thermo Fisher) using Alexa Fluor conjugated kinase tracer, tagged kinase protein, and Eu-labeled anti-tag antibody. The binding of the tracer to the kinase will form the tracer-kinase complex, resulting in a high FRET signal with the Eu-labeled anti-tag antibody. Displacement of the tracer by a kinase inhibitor led to a decreased FRET signal. […] Buffer A containing 50 mM HEPES pH 7.5, 0.01% BRIJ-35, 10 mM MgCl2, and 1 mM EGTA was used.
Kinase profiling was conducted by the SelectScreen Kinase Profiling Services (Thermo Fisher), using Z′-LYTE, Adapta, or LanthaScreen Eu Kinase Binding Assay for different kinases. The kinome phylogenetic tree was generated using the KinMap web portal.

p-IRE1α = target: T1, p-IRE1α (Homo sapiens, UniProt O75460); assay: Gel-based RNA-cleavage assay; assay type: biochemical
T1 construct: Human IRE1α kinase and RNase domain (residues 547–977) was subcloned into pLIB plasmid; His tag (with TEV cleavage site) (N, cleaved yes); made in house; host or cells: Sf9 insect cells, baculovirus (Bac-to-Bac)
Protocol: Purified p-IRE1α with a final concentration of 10 nM was preincubated with the indicated compounds for 30 min at room temperature, then 50 nM FAM and BHQ-labeled XBP1 substrate were added to the reaction. The reaction was further incubated for 45 min at room temperature and then mixed with 6× TBE loading dye (45% H2O, 40 % glycerol, 15% 10× TBE, 0.1% bromphenol blue). 5 μL sample was loaded to 15% pre-runed urea-PAGE, and the gel was run in pre-warmed (~60 °C) 1× TBE buffer buffer in the dark. The gel fluorescence was detected and imaged using the ChemiDoc MP imaging system (Bio-Rad).

[1] = system: IRE1α protein in MDA-MB-231 cells; assay: Western blot of IRE1α protein level, MDA-MB-231; assay type: cell-based, human
Protocol: (§1) A549 cells and MDA-MB-231 Cells were harvested and seeded into 6-well plates with a density of 8 × 10^5 cells per well and cultured overnight. […]. Protein concentrations were measured using a BCA protein assay kit (Thermo Scientific, 23227) and all samples were diluted to the same protein concentration. Each sample with 40 μg of total protein was loaded onto a 4–15% MP stain-free gel (Bio-Rad, 4568085) and separated in tris-glycine-SDS running buffer. The proteins were transferred onto a 0.45 μm PVDF membrane (Bio-Rad, 1704274) using the Trans-Blot Turbo Transfer System with the preprogrammed standard SD protocol (up to 1.0 A; 25 V; 30 min). Membranes were blocked with 5% skim milk (Roth, T145.2) in PBST buffer, then incubated with primary antibody IRE1α (Cell Signaling Technology, #3294 s, 1:1000), XBP1s (Cell Signaling Technology, #12782 s, 1:1000) GAPDH (Proteintech, 10494-1-AP, 1:6000) overnight at 4 °C with shaking. After incubation, membranes were washed with PBST and incubated with the Goat Anti-Rabbit (Proteintech, SA00001-2, 1:6000) antibody at room temperature for 1 h. After washing with PBST, the membranes were visualized using Amersham ECL Prime Western Blotting Detection Kit (Cytiva, RPN2232) and imaged with a ChemiDoc MP imaging system (Bio-Rad).

[2] = system: XBP1s protein in A549 cells; assay: Western blot of XBP1s protein level, A549; assay type: cell-based, human; conditions: 2 h compound, then 1 μg/mL tunicamycin 4 h
Protocol: as §1

[3] = system: XBP1s protein in MDA-MB-231 cells; assay: Western blot of XBP1s protein level, MDA-MB-231; assay type: cell-based, human
Protocol: as §1

[4] = system: IRE1α protein in A549 cells; assay: Western blot of IRE1α protein level, A549; assay type: cell-based, human
Protocol: as §1

[5] = target: T2, p-IRE1α dimerization and oligomerization (Homo sapiens, UniProt O75460); assay: DSS cross-linking assay with mass photometry; conditions: 100 μM compound, DSS crosslinking
T2 construct: Human IRE1α kinase and RNase domain (residues 547–977) was subcloned into pLIB plasmid; His tag (with TEV cleavage site) (N, cleaved yes); made in house; host or cells: Sf9 insect cells, baculovirus (Bac-to-Bac)
Protocol: Phosphorylated IRE1α (p-IRE1α) and compounds were incubated 30 min at room temperature, with a final concentration of 2 μM p-IRE1α and 100 μM of the indicated compound, in a buffer containing 20 mM HEPES, pH 7.5, 50 mM KOAc, 1 mM MgOAc2, 1 mM DTT, 0.05% v/v TritonX-100, in a total reaction volume of 20 μL. After incubation, DSS (disuccinimidyl suberate, Thermo Fisher, A39267) was added to the reaction at a final concentration of 250 μM to induce crosslinking at room temperature for 1 h. Tris (pH 7.5) was added to a final concentration of 50 mM to stop the reaction. Samples were further measured with a mass photometry instrument (Refeyn Ltd). The PBS buffer was used for the mass photometry measurement. The instrument was calibrated with BSA and TG protein mixture in PBS. Samples were diluted to a protein concentration of 100 nM with buffer before measurement. Then, 18 μL PBS buffer was added to the center of the gasket on the coverslips to check and find the focus. Afterward, 2 μL of the diluted sample was added, mixed, and measured. Data were analyzed using Discover MP software, for each sample, results from 3 individual measurements were merged.

MDA-MB-468 cells = assay: Cell viability assay (CCK-8), MDA-MB-468; assay type: cell-based, human; conditions: MDA-MB-468; for inhibition at 50 µM: Homo sapiens, read-out: antiproliferation, inhibition at highest tested concentration
Protocol: Cells were collected and seeded into 96-well plates at a density of 2000–4000 cells per well and cultured overnight to allow cells to adhere. After adherence, cells were treated with the indicated compounds for 72 h. Then 20 μL CCK-8 solution (Vazyme, A311) was added into each well and incubated at 37 °C for 2–4 h. Absorbance was detected at a wavelength of 450 nm using a TECAN plate reader. Cell viability was calculated with the equation: Cell viability (%) = 100(Absorbance of treated cell - Absorbance of Blank control)/ (Absorbance of DMSO-treated cells - Absorbance of Blank control); Blank control: medium and CCK-8 solution, no cells.

[6] = read-out: IRE1a Kinase Displacement(%)
[7] = IRE1α kinase domain, read-out: IC50 (kinase binding), LanthaScreen Eu kinase binding

Chain of IRE1α (ERN1) (O75460 19-977): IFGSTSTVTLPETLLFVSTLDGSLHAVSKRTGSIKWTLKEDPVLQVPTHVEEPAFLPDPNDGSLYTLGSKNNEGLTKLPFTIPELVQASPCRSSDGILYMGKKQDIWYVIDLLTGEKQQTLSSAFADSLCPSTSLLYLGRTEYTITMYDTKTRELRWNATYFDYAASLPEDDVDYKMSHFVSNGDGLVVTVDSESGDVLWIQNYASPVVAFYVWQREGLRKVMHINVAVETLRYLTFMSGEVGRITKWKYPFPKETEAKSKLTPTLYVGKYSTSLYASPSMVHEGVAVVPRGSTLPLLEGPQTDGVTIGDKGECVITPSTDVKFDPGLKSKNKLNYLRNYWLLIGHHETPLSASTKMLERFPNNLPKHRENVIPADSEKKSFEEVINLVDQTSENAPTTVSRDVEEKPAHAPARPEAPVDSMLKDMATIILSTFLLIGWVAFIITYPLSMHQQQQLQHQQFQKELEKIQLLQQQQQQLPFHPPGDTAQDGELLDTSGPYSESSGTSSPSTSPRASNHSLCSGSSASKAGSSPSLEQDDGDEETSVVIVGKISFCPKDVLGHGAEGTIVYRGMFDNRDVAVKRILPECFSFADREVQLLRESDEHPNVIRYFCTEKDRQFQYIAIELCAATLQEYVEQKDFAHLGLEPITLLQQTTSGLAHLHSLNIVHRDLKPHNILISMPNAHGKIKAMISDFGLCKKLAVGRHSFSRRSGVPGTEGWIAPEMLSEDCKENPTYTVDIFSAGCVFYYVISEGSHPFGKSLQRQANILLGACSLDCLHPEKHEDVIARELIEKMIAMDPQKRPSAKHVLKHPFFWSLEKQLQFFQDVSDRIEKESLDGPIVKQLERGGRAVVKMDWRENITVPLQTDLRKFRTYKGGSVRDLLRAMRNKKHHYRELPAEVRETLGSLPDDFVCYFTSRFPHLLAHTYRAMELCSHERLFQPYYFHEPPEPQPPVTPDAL
T1 sequence (O75460 547-977): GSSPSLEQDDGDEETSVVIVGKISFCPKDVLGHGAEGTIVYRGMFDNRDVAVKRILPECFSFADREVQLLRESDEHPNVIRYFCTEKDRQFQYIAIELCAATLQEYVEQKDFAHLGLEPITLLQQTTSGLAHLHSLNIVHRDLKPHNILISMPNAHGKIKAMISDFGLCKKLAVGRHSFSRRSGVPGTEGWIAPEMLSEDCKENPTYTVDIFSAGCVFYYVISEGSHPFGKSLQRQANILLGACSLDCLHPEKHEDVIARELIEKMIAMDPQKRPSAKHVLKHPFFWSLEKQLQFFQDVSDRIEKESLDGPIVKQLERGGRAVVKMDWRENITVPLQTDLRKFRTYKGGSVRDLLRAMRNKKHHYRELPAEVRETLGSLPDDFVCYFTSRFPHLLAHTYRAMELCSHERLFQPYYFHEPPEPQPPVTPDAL
T2 sequence (O75460 547-977): as above

In the case of `COc1ccc2c(c1)c(CCC(=O)O)c(C)n2C(=O)c1ccccc1` [IA64], the inhibition at 5.56 µM (IRE1α (ERN1); [6]) is reported as 104%, the inhibition at 16.7 µM (IRE1α (ERN1); [6]) is reported as 98% and the inhibition at 50 µM (IRE1α (ERN1); [6]) is reported as 109%. For the same compound, the IC50 (IRE1α (ERN1); [7]) was 1100 nM and the “inhibition of p-IRE1α RNase activity in gel-based cleavage assay” value (“inhibition of p-IRE1α RNase activity” for short) (p-IRE1α) was “inhibited p-IRE1α activity; also recorded: concentration-dependently inhibited”.
With `CCOC(=O)Nc1cccc2c(Oc3ncccc3-c3ccnc(N[C@H]4CCCNC4)n3)c(C)ccc12` [Compound G1749, reference compound] the “effect on IRE1α protein level” value [1] was “did not affect”, the “effect on ER stress-induced XBP1s protein” value [2] was “partially inhibited” and the “effect on ER stress-induced XBP1s protein” value [3] was “partially inhibited”. The “effect on IRE1α protein level” value [4] was “did not affect” and the “effect on p-IRE1α dimerization/oligomerization” value [5] was “inhibited the dimerization; also recorded: interfere with the dimerization”.
`Cc1ccc2c(NS(=O)(=O)c3ccccc3Cl)cccc2c1Oc1ncccc1-c1ccnc(N[C@H]2CCCNC2)n1` [KIRA8] was tested, and the “effect on IRE1α protein level” value [1] was “did not affect”, the “effect on IRE1α protein level” value [4] was “did not affect” and the “effect on p-IRE1α dimerization/oligomerization” value [5] was “interfere with the dimerization; also recorded: inhibited dimerization”.
`CCOC(=O)CCc1c(C)n(C(=O)c2ccccc2)c2ccc(Br)cc12` [IAPD1] was tested, and the “effect on IRE1α protein level” value [1] was “did not affect”, the “effect on ER stress-induced XBP1s protein” value [2] was “inhibited the XPB1s protein level” and the inhibition at 50 µM (MDA-MB-468 cells) was < 30%. The “cytotoxicity” value (MDA-MB-468 cells) was “did not show cytotoxicity”, the “binding to IRE1α kinase domain in LanthaScreen assay” value (IRE1α (ERN1)) was “did not show any detectable activity” and the inhibition at 0.0686 µM (IRE1α (ERN1); 0.0686 μM, read-out: IRE1a Kinase Displacement(%)) was 11.5%. For the same compound, the “binding to IRE1α kinase domain in LanthaScreen assay” value (IRE1α (ERN1); listed as IADP1) was “did not show any detectable”, the IC50 (IRE1α (ERN1); read-out: IC50 (Kinase), LanthaScreen kinase binding/displacement) was > 50000 nM and the “effect on ER stress-induced XBP1s protein” value [3] was “inhibited the XPB1s protein level”. The “effect on IRE1α protein level” value [4] was “did not affect”.
With `Cc1c(CCC(=O)O)c2cc(Br)ccc2n1C(=O)c1ccccc1` [IA107] the inhibition at 50 µM (MDA-MB-468 cells) was < 30%, the “cytotoxicity” value (MDA-MB-468 cells) was “did not show cytotoxicity” and the inhibition at 5.56 µM (IRE1α (ERN1); [6]) was 88%. It also gave an inhibition at 16.7 µM (IRE1α (ERN1); [6]) of 94%, an inhibition at 50 µM (IRE1α (ERN1); [6]) of 96% and an IC50 (IRE1α (ERN1); [7]) of 768 nM. For the same compound, the inhibition at 5 µM (IRE1α (ERN1); kinase profiling, ERN1, LanthaScreen Binding, IA107 at 5 μM) was 91%, the “inhibition of p-IRE1α RNase activity” value (p-IRE1α) was “concentration-dependently inhibited” and the “effect on p-IRE1α dimerization/oligomerization” value [5] was “did not inhibit the dimerization and oligomerization; also recorded: did not affect the dimerization and oligomerization”.
With `COc1ccc2c(c1)c(CCC(=O)O)c(C)n2C(=O)c1ccc(Cl)cc1` [IA01] the inhibition at 5.56 µM (IRE1α (ERN1); [6]) was 50%, the inhibition at 16.7 µM (IRE1α (ERN1); [6]) was 63% and the inhibition at 50 µM (IRE1α (ERN1); [6]) was 70%. The IC50 (IRE1α (ERN1); [7]) was 2470 nM and the “inhibition of p-IRE1α RNase activity” value (p-IRE1α) was “concentration-dependently inhibited”.
